# Data from paper PMC7684313, “In vitro and in vivo pharmacological activity of minor cannabinoids isolated from Cannabis sativa” (Scientific Reports, 2020).
# “Also recorded” adds a separate entry of the source. Read-outs that look alike come from different tables or passages of the source. Marks after values point to notes of the source that are not given here.
# Experiments:
# hCB2R [1] = target: T1, hCB2R (Homo sapiens, UniProt P34972); test: [^3H]CP55,940 displacement from hCB2R CHO cell membranes; settings: for hCB2R Emin: bottom of the concentration–response curve of [^3H]CP55,940 displacement, %CP55,940 response, mean ± SEM; for extent of [^3H]CP55,940 displacement from hCB2R, in words: concentration range 0.1 nM–10 µM
# T1 sequence (P34972 whole entry): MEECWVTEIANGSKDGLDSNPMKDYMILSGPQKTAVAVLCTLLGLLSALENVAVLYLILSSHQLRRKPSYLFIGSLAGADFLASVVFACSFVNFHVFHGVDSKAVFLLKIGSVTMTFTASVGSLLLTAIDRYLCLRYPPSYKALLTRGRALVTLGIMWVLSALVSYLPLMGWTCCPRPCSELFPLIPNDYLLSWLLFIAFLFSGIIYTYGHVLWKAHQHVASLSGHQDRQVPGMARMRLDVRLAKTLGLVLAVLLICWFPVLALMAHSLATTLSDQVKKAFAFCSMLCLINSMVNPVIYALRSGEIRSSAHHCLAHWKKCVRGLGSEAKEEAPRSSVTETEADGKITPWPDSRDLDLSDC
# C57BL/6 mice [2] = test: Nociception in the tail flick assay (tetrad); format: in vivo
# Method: (§1) Asterisk colour matches the treatment group assessed.
# (§2) Concentration–response curves (CRC) were fit using non-linear regression with variable slope (4 parameters) and used to calculate EC50, Emin, and Emax (GraphPad, Prism, v. 8.0). […] In vivo data are presented as % MPE for catalepsy (MPE = 60 s) and anti-nociception (MPE = 20 s), °C for body temperature, and distance travelled (m) and % time in the centre quadrant in 5 min for OFT. Post-hoc analyses were performed using Tukey’s (one-way ANOVA) test. Homogeneity of variance was confirmed using Bartlett’s test. All data were evaluated for possible outliers using Grubb’s test in GraphPad.
# C57BL/6 mice [3] = test: Locomotion in the open field test (OFT); format: in vivo
# Method: as §1, §2
# C57BL/6 mice [4] = test: Body temperature (tetrad); format: in vivo
# Method: as §1, §2
# C57BL/6 mice [5] = test: Catalepsy in the ring holding assay (tetrad); format: in vivo; settings: MPE 60 s = 100%
# Method: as §1, §2
# hCB1R [6] = target: T2, hCB1R (Homo sapiens, UniProt P21554); test: biochemical; format: binding
# T2 construct: expressed in transfected cells; membranes
# T2 sequence (P21554 whole entry): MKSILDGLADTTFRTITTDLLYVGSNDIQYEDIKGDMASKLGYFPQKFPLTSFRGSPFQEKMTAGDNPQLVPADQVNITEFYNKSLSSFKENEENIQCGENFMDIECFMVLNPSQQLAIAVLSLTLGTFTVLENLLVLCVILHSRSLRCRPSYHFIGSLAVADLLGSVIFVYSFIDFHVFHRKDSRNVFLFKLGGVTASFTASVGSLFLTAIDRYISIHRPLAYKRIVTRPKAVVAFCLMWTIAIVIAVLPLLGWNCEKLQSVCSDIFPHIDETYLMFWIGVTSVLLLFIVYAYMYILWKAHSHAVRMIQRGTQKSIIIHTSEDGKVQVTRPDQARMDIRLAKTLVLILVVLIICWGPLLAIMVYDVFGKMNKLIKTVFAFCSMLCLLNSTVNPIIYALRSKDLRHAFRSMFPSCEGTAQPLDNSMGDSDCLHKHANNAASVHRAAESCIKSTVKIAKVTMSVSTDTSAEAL
# hCB1R [7] = target: T2, hCB1R; test: cell-based; format: cell-based; settings: for Emax: CHO, read-out: hCB1R Emax, inhibition of FSK-stimulated cAMP accumulation
# hCB2R [8] = target: T1, hCB2R; test: hCB2R-dependent recruitment of βarrestin2 (PathHunter CHO cells); format: cell-based; set-up: expressed in transfected cells; membranes; settings: for activity in hCB2R βarrestin2 recruitment, in words: 0.1 nM–10 µM, relative to CP55,940; for Emax: CHO
# hCB2R [9] = target: T1, hCB2R; test: hCB2R-dependent inhibition of FSK-stimulated cAMP accumulation (HitHunter CHO cells); format: cell-based; set-up: expressed in transfected cells; membranes; settings: for Emax: CHO; for agonist activity in hCB2R cAMP inhibition, in words: 0.1 nM–10 µM, relative to CP55,940
# C57BL/6 mice [10] = test: Tetrad of assays, overall
# hCB1R [11] = target: T2, hCB1R; test: cell-based; settings: for Emax: CHO, read-out: hCB1R Emax, recruitment of βarrestin2
# hCB2R [12] = target: T1, hCB2R; test: Ligand bias between cAMP inhibition and βarrestin2 recruitment at hCB2R (operational model); format: cell-based; set-up: expressed in transfected cells; membranes; settings: ∆∆LogR > 0 bias for inhibition of cAMP, < 0 bias for βarrestin2; CP55,940 reference agonist
# Method: (§3) Figure 8 Analysis of ligand bias for phytocannabinoids at hCB1R (a) and hCB2R (b).
# as §2
# C57BL/6 mice [13] = test: Time in the centre quadrant of the OFT (anxiety-like behaviour); format: in vivo; settings: 1 h post-injection
# Method: as §1, §2
# hCB2R [14] = target: T1, hCB2R; test: biochemical
# hCB1R [15] = target: T2, hCB1R; test: Ligand bias between cAMP inhibition and βarrestin2 recruitment at hCB1R (operational model); format: cell-based; settings: ∆∆LogR > 0 bias for inhibition of cAMP, < 0 bias for βarrestin2; CP55,940 reference agonist
# Method: as §3, §2
# [16] = dose range 0.1–10 mg/kg i.p., 15 min post-injection
# [17] = HitHunter CHO hCB1R cells, 90 min, 95% CI in brackets, read-out: hCB1R EC50, inhibition of FSK-stimulated cAMP accumulation
# [18] = PathHunter CHO hCB1R cells, 90 min, 95% CI in brackets, read-out: hCB1R EC50, recruitment of βarrestin2
# [19] = PathHunter CHO hCB2R cells, 90 min, 95% CI in brackets, read-out: hCB2R EC50, recruitment of βarrestin2
# [20] = 10 mg/kg i.p., 1 h post-injection
# [21] = HitHunter CHO hCB2R cells, 90 min, 95% CI in brackets, read-out: hCB2R EC50, inhibition of FSK-stimulated cAMP accumulation
Compound,hCB2R Emin (hCB2R [1]),hCB1R Emin (hCB1R [6]),Emax (hCB1R [7]),"activity in hCB2R βarrestin2 recruitment, in words (hCB2R [8])",Emax (hCB2R [8]),Emax (hCB2R [9]),"extent of [^3H]CP55,940 displacement from hCB1R, in words (hCB1R [6])",Emax (hCB1R [11]),"extent of [^3H]CP55,940 displacement from hCB2R, in words (hCB2R [1])","ligand bias at hCB2R (∆∆LogR), in words (hCB2R [12])","anti-nociceptive effect (tail flick latency), in words (C57BL/6 mice [2]; [16])",EC50 (hCB1R [7]; [17]),Ki (hCB1R [6]),Ki (hCB2R [14]),EC50 (hCB1R [11]; [18]),"ligand bias at hCB1R (∆∆LogR), in words (hCB1R [15])",EC50 (hCB2R [8]; [19]),EC50 (hCB2R [9]; [21]),also measured
"CCCCCCC(C)(C)c1ccc([C@@H]2C[C@H](O)CC[C@H]2CCCO)c(O)c1 [CP55,940, reference compound]",0.0 ± 6.2%,0.0 ± 5.2%,,,,,,,,,,,,,,,,,"anti-nociceptive effect (tail flick latency), in words (C57BL/6 mice [2]; 0.1 mg/kg i.p., 15 min post-injection): anti-nociceptive effects; total locomotion in the OFT, in words (C57BL/6 mice [3]; 0.1 mg/kg i.p., 1 h post-injection): reduced total locomotion; effect on body temperature, in words (C57BL/6 mice [4]; 0.1 mg/kg i.p.): decreased body temperature; cataleptic response, % of maximum possible effect (MPE) (C57BL/6 mice [5]; 0.1 mg/kg i.p.): 25%"
"C=C(C)[C@@H]1CCC(C)=C[C@H]1c1c(O)cc(CCCCC)cc1O [CBD, cannabidiol, reference compound]",54 ± 9.3*^ %,,26 ± 1.6%,modest agonist activity,23 ± 2.8%,61 ± 2.3%,"weakly displaced [^3H]CP55,940 at concentrations ≥ 1 µM",1 ± 1.6%,,,,,,,,,,,"effects in the tetrad of assays, in words (C57BL/6 mice [10]; between 1 and 10 mg/kg): no effects"
"CCCCCc1cc(O)c2c(c1)OC(C)(C)[C@@H]1CCC(C)=C[C@@H]21 [∆^9-THC, ∆^9-tetrahydrocannabinol, reference compound]",7.4 ± 4.4%,,,modest agonist activity,46 ± 4.9%,76 ± 8.6%,,,"displaced [^3H]CP55,940 from hCB2R to an extent that was not different from CP55,940",bias for inhibition of cAMP relative to βarrestin2,dose-dependent increase in anti-nociceptive effects,,,,,,,,"effect on body temperature, in words (C57BL/6 mice [4]; 3 and 10 mg/kg i.p.): decreased body temperature; cataleptic response, % of maximum possible effect (MPE) (C57BL/6 mice [5]; 3 mg/kg i.p.): 17%; cataleptic response, % of maximum possible effect (MPE) (C57BL/6 mice [5]; 10 mg/kg i.p.): 100%"
"CCCc1cc(O)c2c(c1)OC(C)(C)[C@@H]1CCC(C)=C[C@@H]21 [THCV, ∆^9-tetrahydrocannabivarin]",27 ± 9.5%,54 ± 4.1*^ %,59 ± 3.9%,"demonstrable efficacy at hCB2R in the βarrestin2 recruitment assay, but with very low potency; also recorded: agonist",50 ± 6.8%,79 ± 1.3%,partially displaced,0.05 ± 2.1%,"displaced [^3H]CP55,940 from hCB2R to an extent that was not different from CP55,940",,dose-dependent increase in anti-nociceptive effects,260 nM,22 nM,47 nM,> 10000 nM,,,,"agonist activity in hCB1R cAMP inhibition, in words (hCB1R [7]): weak partial agonist response; EC50 (hCB2R [8]): > 10000 nM; anti-nociceptive effect (tail flick latency), in words (C57BL/6 mice [2]; 3 and 10 mg/kg i.p.): anti-nociceptive; total locomotion in the OFT, in words (C57BL/6 mice [3]; 3 and 10 mg/kg i.p.): hypolocomotive; effect on body temperature, in words (C57BL/6 mice [4]; 10 mg/kg i.p.): decreased body temperature; also recorded: hypothermic; EC50 (hCB2R [9]): 280 nM; agonist activity in hCB2R cAMP inhibition, in words (hCB2R [9]): agonist; cataleptic response, % of maximum possible effect (MPE) (C57BL/6 mice [5]; 10 mg/kg i.p.): 39%; time in the central quadrant of the OFT (modelled anxiolytic effect), in words (C57BL/6 mice [13]; 3 and 10 mg/kg i.p.): anxiolytic"
"CCCCCc1cc2c(c(O)c1C(=O)O)[C@@H]1C=C(C)CC[C@H]1C(C)(C)O2 [∆^9-THCa, ∆^9-tetrahydrocannabinolic acid]",49 ± 7.2*^ %,67 ± 11*^ %,35 ± 11%,,15 ± 2.5%,95 ± 1.5%,partially displaced,4.1 ± 1.5%,,,dose-dependent increase in anti-nociceptive effects,,620 nM,1.3 nM,,bias for the inhibition of cAMP relative to βarrestin2,,,"EC50 (hCB1R [7]): > 10000 nM; agonist activity in hCB1R cAMP inhibition, in words (hCB1R [7]): weak partial agonist; EC50 (hCB2R [8]): > 10000 nM; anti-nociceptive effect (tail flick latency), in words (C57BL/6 mice [2]; 3 and 10 mg/kg i.p.): anti-nociceptive; total locomotion in the OFT, in words (C57BL/6 mice [3]; 3 and 10 mg/kg i.p.): hypolocomotive effects; EC50 (hCB2R [9]): 1800 nM; agonist activity in hCB2R cAMP inhibition, in words (hCB2R [9]): weakly potent agonist; time in the central quadrant of the OFT (modelled anxiolytic effect), in words (C57BL/6 mice [13]; 10 mg/kg i.p.): anxiolytic-like effects; EC50 (hCB1R [11]): > 10000 nM"
"CCCCCc1cc(O)c2c(c1)OC(C)(CCC=C(C)C)C=C2 (stereo not shown) [CBC, cannabichromene]",9.7 ± 5.9 %,55 ± 3.7*^ %,68 ± 9.7%,,12 ± 2.8%,76 ± 5.4%,partially displaced,6.9 ± 0.96%,"displaced [^3H]CP55,940 from hCB2R to an extent that was not different from CP55,940",bias for inhibition of cAMP relative to βarrestin2,,190 nM,11 nM,,> 10000 nM,bias for the inhibition of cAMP relative to βarrestin2,> 10000 nM,7.1 nM,"anti-nociceptive effect (tail flick latency), in words (C57BL/6 mice [2]; 3 mg/kg i.p., 15 min post-injection): weak anti-nociceptive effect; total locomotion in the OFT, in words (C57BL/6 mice [3]; [20]): Hypolocomotive responses"
"C=C(C)[C@@H]1CCC(C)=C[C@H]1c1c(O)cc(CCCCC)c(C(=O)O)c1O [CBDa, cannabidiolic acid]",30 ± 7.8 %,96 ± 6.5*^ %,22 ± 1.1%,,18 ± 2.5%,32 ± 4.2%,"weakly displaced [^3H]CP55,940 at concentrations ≥ 1 µM",0.1 ± 0.11%,"displaced [^3H]CP55,940 from hCB2R to an extent that was not different from CP55,940",bias for inhibition of cAMP relative to βarrestin2,,30 nM,> 10000 nM,12 nM,> 10000 nM,bias for the inhibition of cAMP relative to βarrestin2,> 10000 nM,140 nM,"total locomotion in the OFT, in words (C57BL/6 mice [3]; [20]): Hypolocomotive responses"
"C=C(C)[C@@H]1CCC(C)=C[C@H]1c1c(O)cc(CCC)cc1O [CBDV, cannabidivarin]",22 ± 9.3 %,96 ± 5.1*^ %,68 ± 5.7%,"demonstrable efficacy at hCB2R in the βarrestin2 recruitment assay, but with very low potency",64 ± 13%,51 ± 12%,"weakly displaced [^3H]CP55,940 at concentrations ≥ 1 µM",0.96 ± 0.75%,"displaced [^3H]CP55,940 from hCB2R to an extent that was not different from CP55,940",bias for inhibition of cAMP relative to βarrestin2,,> 10000 nM,> 10000 nM,140 nM,> 10000 nM,,> 10000 nM,5 nM,"in vivo responses in the tetrad assays, in words (C57BL/6 mice [10]; doses tested 0.1–10 mg/kg i.p.): no significant in vivo responses"
